Some test systems named below: MOLT-4 leukemia; NCI-H460 lung; HS 578T breast; U251 CNS; SK-MEL-5 melanoma; SNB-75 CNS; COLO 205 colon; RPMI-8226 leukemia; SW-620 colon; KM12 colon.
Assay in all cases: inhibition of tumour cell growth, NCI panel, 48 h

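Test compounds were applied to cells in 96-well plates for 48 hours at 5 doses. TGI denotes the concentration required for complete inhibition of growth.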

Turning to `CN(C)Cc1cc(N=Nc2ccc(Cl)c(Cl)c2)ccc1O`, the TGI with MOLT-4 leukemia came out at 24.4 µM; in the assay with NCI-H460 lung, 19.8 µM; with HS 578T breast it was 21.9 µM; in the assay with U251 CNS, 23.6 µM; in the assay on SK-MEL-5 melanoma it was 25.2 µM; in the assay with SNB-75 CNS it was 20.3 µM. Also, the TGI stood at 8.26 µM in the assay with COLO 205 colon, 38.8 µM in the assay on RPMI-8226 leukemia, 23.1 µM with SW-620 colon and 16.5 µM in the assay with KM12 colon.
`Cc1ccc2[nH]c(=O)c(-c3cnc(=O)[nH]n3)c(O)c2c1`: the TGI in the assay with MOLT-4 leukemia, in the assay with NCI-H460 lung, in the assay with HS 578T breast, in the assay on U251 CNS, in the assay on SK-MEL-5 melanoma and with SNB-75 CNS was over 100 µM in each case. Moreover, the TGI in the assay on COLO 205 colon, with RPMI-8226 leukemia, in the assay on SW-620 colon and in the assay on KM12 colon was over 100 µM throughout.
In the case of `N#CC(c1ccccc1)c1cccc2ccccc12` (stereo not given), the TGI with MOLT-4 leukemia is 57.6 µM; with NCI-H460 lung, over 100 µM; in the assay on HS 578T breast it was over 100 µM; in the assay on U251 CNS, over 100 µM; with SK-MEL-5 melanoma, 34.3 µM; with SNB-75 CNS, over 100 µM. Further, the TGI in the assay on COLO 205 colon was over 100 µM; in the assay with RPMI-8226 leukemia, 67.9 µM; with SW-620 colon, over 100 µM; in the assay on KM12 colon, 66 µM.
Take `CCn1c2c(c3c(C(=O)OC)c(O)ccc31)C(=O)c1ccccc1C2=O`: the TGI with MOLT-4 leukemia came out at 61.5 µM; in the assay on NCI-H460 lung it was 27.9 µM; in the assay on HS 578T breast, 55.3 µM; with U251 CNS, 36.3 µM; in the assay with SK-MEL-5 melanoma, 27.6 µM; in the assay with SNB-75 CNS, 39.9 µM. Further, the TGI with COLO 205 colon was found to be 33 µM; in the assay with RPMI-8226 leukemia it was 27.2 µM; in the assay on SW-620 colon, 33.8 µM; in the assay with KM12 colon, 34.6 µM.
As for `O=c1[nH]cnc2c1ncn2[C@H]1CO[C@@H](CO)[C@@H]1O`, the TGI with MOLT-4 leukemia, with NCI-H460 lung, in the assay with HS 578T breast, in the assay on U251 CNS, in the assay on SK-MEL-5 melanoma and in the assay with SNB-75 CNS was over 100 µM in each case. Besides, the TGI in the assay with COLO 205 colon, with RPMI-8226 leukemia, with SW-620 colon and with KM12 colon was over 100 µM in each case.
As to `CC(NC(=O)c1ccc(OP(=O)(OCC2=CC(=O)c3ccccc3C2=O)N(C)CCCCCl)cc1)c1ccc(OCC2CCCCC2)c(C(N)=O)c1` (stereo not given), the TGI in the assay on MOLT-4 leukemia is 30 µM; in the assay on NCI-H460 lung, 22.9 µM; in the assay with HS 578T breast, 21.7 µM; in the assay on U251 CNS, 22.3 µM; in the assay with SK-MEL-5 melanoma, 2.02 µM; in the assay with SNB-75 CNS, 19.5 µM. Further, the TGI in the assay on COLO 205 colon stood at 20.6 µM; in the assay on RPMI-8226 leukemia, 30.6 µM; in the assay on SW-620 colon, 38.3 µM; in the assay on KM12 colon, 30.3 µM.
Regarding `COc1ccc(N=C/C=C/Nc2ccc(OC)cc2)cc1`, the TGI with MOLT-4 leukemia stood at 22.9 µM; with NCI-H460 lung, 28.1 µM; with HS 578T breast, 38.8 µM; in the assay on U251 CNS, 10.2 µM; in the assay with SK-MEL-5 melanoma, 19.5 µM; in the assay on SNB-75 CNS, 33.1 µM. The TGI in the assay with COLO 205 colon was 16.3 µM; with RPMI-8226 leukemia it was 30.4 µM; in the assay on SW-620 colon it was 5.48 µM; in the assay on KM12 colon, 9.55 µM.
`COc1ccc2c(c1)CC[C@@H]1[C@@H]2CC[C@]2(C)/C(=N/OCCN3CCCCC3)CC[C@@H]12`: the TGI in the assay with MOLT-4 leukemia was 8.37 µM; with NCI-H460 lung, 5.68 µM; in the assay with HS 578T breast, 26.6 µM; in the assay with U251 CNS it was 24.3 µM; in the assay with SK-MEL-5 melanoma it was 6.27 µM; with SNB-75 CNS, 18.2 µM. The TGI in the assay on COLO 205 colon was 3.18 µM; in the assay with RPMI-8226 leukemia, 6.35 µM; with SW-620 colon it was 20.3 µM; in the assay on KM12 colon, 13.2 µM.
With `COC(=O)/C=C1/OC(c2ccccc2)=C(Cl)C1=O`, the TGI is 18.1 µM in the assay on MOLT-4 leukemia; over 77.6 µM with NCI-H460 lung; 66.8 µM in the assay with HS 578T breast; 27.1 µM in the assay with U251 CNS; 28.7 µM with SK-MEL-5 melanoma; 48.5 µM with SNB-75 CNS. In addition, the TGI in the assay on COLO 205 colon amounted to 30.1 µM; with RPMI-8226 leukemia, 22.5 µM; with SW-620 colon, 41.6 µM; with KM12 colon, 45.6 µM.
For `Cn1c2ccccc2n2c3nc4ccccc4nc3c(C#N)c12`, the TGI in the assay on MOLT-4 leukemia, in the assay on NCI-H460 lung, with HS 578T breast, with U251 CNS, in the assay with SK-MEL-5 melanoma and in the assay on SNB-75 CNS was over 100 µM in each case. Also, the TGI in the assay with COLO 205 colon, in the assay on RPMI-8226 leukemia, in the assay with SW-620 colon and in the assay with KM12 colon was over 100 µM throughout.
Take `Cc1nc2ccccc2n1CCc1nc2ccccc2s1`: the TGI was 53.6 µM with MOLT-4 leukemia; over 100 µM in the assay with NCI-H460 lung; over 100 µM with HS 578T breast; over 100 µM with U251 CNS; 23.6 µM in the assay with SK-MEL-5 melanoma; over 100 µM in the assay on SNB-75 CNS. For the same molecule, the TGI in the assay on COLO 205 colon, in the assay with RPMI-8226 leukemia, in the assay on SW-620 colon and in the assay with KM12 colon was over 100 µM in each case.
Regarding `COc1ccc(CN=CN/C(C#N)=C(\N)C#N)cc1OC`, the TGI with MOLT-4 leukemia, with NCI-H460 lung, with HS 578T breast, with U251 CNS, in the assay on SK-MEL-5 melanoma and with SNB-75 CNS was over 100 µM throughout. Also, the TGI in the assay with COLO 205 colon, with RPMI-8226 leukemia, in the assay with SW-620 colon and in the assay on KM12 colon was over 100 µM in each case.
`CCOC(=O)/C=C(/C(=O)OCC)n1cc(C)c(=O)n(Cc2cnnn2CCCCOC(C)=O)c1=O`: the TGI was 47.9 µM in the assay on MOLT-4 leukemia; 71.5 µM with NCI-H460 lung; over 100 µM in the assay with HS 578T breast; over 100 µM in the assay with U251 CNS; 83.4 µM with SK-MEL-5 melanoma; over 100 µM with SNB-75 CNS. For the same molecule, the TGI was 56.7 µM in the assay with COLO 205 colon, 46.2 µM with RPMI-8226 leukemia, over 100 µM in the assay with SW-620 colon and over 100 µM with KM12 colon.
On to `COc1ccc(CNc2nc3ccccc3nc2-c2cccs2)cc1`, for which the TGI is 45.4 µM with MOLT-4 leukemia; over 100 µM in the assay with NCI-H460 lung; 99.8 µM with HS 578T breast; over 100 µM in the assay with U251 CNS; over 100 µM with SK-MEL-5 melanoma; over 100 µM in the assay on SNB-75 CNS. In addition, the TGI in the assay with COLO 205 colon, in the assay with RPMI-8226 leukemia, with SW-620 colon and in the assay with KM12 colon was over 100 µM each time.

The values above are taken from PubChem BioAssay (NCI).
